We go through 14 compounds from patent US20260137819A1 (Radionetics Oncology, Inc., priority 2022, published 2026).

Bounds are passed on as bounds.

For the assay, the target named is T1, human follicle-stimulating hormone receptor (FSHR) (Homo sapiens, UniProt P23945).
T1 construct: host or cells: CHO-K1
T1 sequence (P23945 18-695): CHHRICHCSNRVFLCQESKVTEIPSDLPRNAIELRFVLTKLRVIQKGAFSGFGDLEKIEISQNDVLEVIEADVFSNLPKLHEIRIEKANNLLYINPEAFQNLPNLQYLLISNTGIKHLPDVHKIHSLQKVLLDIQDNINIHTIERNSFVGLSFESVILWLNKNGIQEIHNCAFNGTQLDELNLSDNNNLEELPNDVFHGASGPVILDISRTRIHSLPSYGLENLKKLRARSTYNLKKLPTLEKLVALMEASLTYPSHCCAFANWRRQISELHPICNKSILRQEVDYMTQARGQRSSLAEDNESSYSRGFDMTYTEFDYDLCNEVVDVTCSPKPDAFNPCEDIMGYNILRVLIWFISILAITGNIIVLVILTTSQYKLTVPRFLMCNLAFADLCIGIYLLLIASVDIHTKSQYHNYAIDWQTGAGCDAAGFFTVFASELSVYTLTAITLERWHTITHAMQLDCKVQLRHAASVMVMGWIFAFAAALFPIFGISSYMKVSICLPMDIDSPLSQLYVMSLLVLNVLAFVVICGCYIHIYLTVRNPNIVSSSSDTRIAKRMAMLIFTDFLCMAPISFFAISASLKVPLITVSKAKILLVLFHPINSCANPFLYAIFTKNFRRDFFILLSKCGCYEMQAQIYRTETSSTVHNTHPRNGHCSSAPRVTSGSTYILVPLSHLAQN
Description: Measurement of agonist cAMP production by activation of human FSHR. The assay is classed as cell-based. The conditions noted are these: CHO-K1 human FSHR cells, 30 minutes at 37° C., HTRF cAMP kit; read-out: hFSHR Agonist cAMP EC50. On the procedure: Measurement of agonist cAMP production by activation of human FSHR
Two days prior to the assay, 5,000 CHO—K1 human FSHR cells (Eurofins #95-0119C2) stably expressing the functional human follicle-stimulating hormone receptor were plated in a 96-well tissue culture-treated plate in growth media supplemented with the appropriate selection agent. […] The cells were incubated for 30 minutes at 37° C. (the final concentrations of the compound ranged from 0-10,000 nM). After the 30-minute incubation at 37° C., lysis buffer (HRTF CAMP kit, Cisbio #62AM5PEB)w as added directly to the cells and incubated for 30-minutes at room temperature. The diluted lysate was transferred and CAMP detection and visualization antibodies (HRTF CAMP kit, Cisbio #62AM5PEB) were added and incubated for 1-24 hours at room temperature. The time-resolved fluorescent signal was read with a Tecan M1000Pro (Tecan) multiplate reader. The intracellular cAMP concentrations were calculated by regression to a standard curve and were plotted vs. the concentration of the agonists. The concentration of test compound or FSH required to generate a half maximal response EC50 were calculated using standard curve-fitting methods. All data manipulations were performed using GraphPad Prism v9.3.1 (GraphPad, San Diego, CA).
On to `COc1cc2c(cc1-c1cccc(NC(=O)NCCNC(=O)[C@H](N)CCCCNC(=O)CN3CCN(CC(=O)O)CCN(CC(=O)O)CCN(CC(=O)O)CC3)c1)-c1c(c(C(=O)N3CCOCC3(C)C)nn1-c1cc(Cl)cc(Cl)c1)CO2` [Compound 23A, indium (III) (R)-2,2′,2″-(10-(2-((5-amino-6-((2-(3-(3-(1-(3,5-dichlorophenyl)-3-(3,3-dimethylmorpholine-4-carbonyl)-7-methoxy-1,4-dihydrochromeno[4,3-c]pyrazol-8-yl)phenyl)ureido)ethyl)amino)-6-oxohexyl)amino)-2-oxoethyl)-1,4,7,10-tetraazacyclododecane-1,4,7-triyl)triacetate], for which the concentration giving a half-maximal response (EC50) – broadly, the concentration needed to bring the measured effect to its halfway point – lay within 10 to 100 nM.
Then `COc1cc2c(cc1-c1cccc(NC(=O)NCCNC(=O)[C@H](N)CCCCNC(=O)CN3CCN(CC(=O)O)CCN(CC(=O)O)CCN(CC(=O)O)CC3)c1)-c1c(c(C(=O)N3CCOCC3(C)C)nn1-c1cc(Cl)cc(Cl)c1)CO2` [Compound 23], with below 10 nM; and `COc1cc2c(cc1-c1cccc(NC(=O)NCCNc3c(NCCNC(=O)CN4CCN(CC(=O)O)CCN(CC(=O)O)CCN(CC(=O)O)CC4)c(=O)c3=O)c1)-c1c(c(C(=O)N3CCOCC3(C)C)nn1-c1cc(Cl)cc(Cl)c1)CO2` [Compound 24, 2,2′,2″-(10-(2-((2-((2-((2-(3-(3-(1-(3,5-dichlorophenyl)-3-(3,3-dimethylmorpholine-4-carbonyl)-7-methoxy-1,4-dihydrochromeno|4,3-c|pyrazol-8-yl)phenyl)ureido)ethyl)amino)-3,4-dioxocyclobut-1-en-1-yl)amino)ethyl)amino)-2-oxoethyl)-1,4,7,10-tetraazacyclododecane-1,4,7-triyl)triacetic acid], with 10 to 100 nM.
With `COc1cc2c(cc1-c1cccc(NC(=O)NCCNc3c(NCCNC(=O)CN4CCN(CC(=O)O)CCN(CC(=O)O)CCN(CC(=O)O)CC4)c(=O)c3=O)c1)-c1c(c(C(=O)N3CCOCC3(C)C)nn1-c1cc(Cl)cc(Cl)c1)CO2` [Compound 24A, indium (III) 2,2′,2″-(10-(2-((2-((2-((2-(3-(3-(1-(3,5-dichlorophenyl)-3-(3,3-dimethylmorpholine-4-carbonyl)-7-methoxy-1,4-dihydrochromeno[4,3-c]pyrazol-8-yl)phenyl)ureido)ethyl)amino)-3,4-dioxocyclobut-1-en-1-yl)amino)ethyl)amino)-2-oxoethyl)-1,4,7,10-tetraazacyclododecane-1,4,7-triyl)triacetate] the figure was below 10 nM; with `COCCOCCOCCOCCOCCOCCC(=O)N[C@H](CC(=O)N1CC2(CCCN2C(=O)CNC(=O)CN2CCN(CC(=O)O)CCN(CC(=O)O)CCN(CC(=O)O)CC2)C1)C(=O)Nc1cccc(-c2cc3c(cc2OC)OCc2c(C(=O)N4CCOCC4(C)C)nn(-c4cc(Cl)cc(Cl)c4)c2-3)c1` [Compound 25, (R)-2,2′,2″-(10-(2-((2-(2-(22-((3-(1-(3,5-dichlorophenyl)-3-(3,3-dimethylmorpholine-4-carbonyl)-7-methoxy-1,4-dihydrochromeno[4,3-c]pyrazol-8-yl)phenyl)carbamoyl)-20-oxo-2,5,8,11,14,17-hexaoxa-21-azatetracosan-24-oyl)-2,5-diazaspiro[3.4]octan-5-yl)-2-oxoethyl)amino)-2-oxoethyl)-1,4,7,10-tetraazacyclododecane-1,4,7-triyl)triacetic acid], above 100 nM; with `COc1cc2c(cc1-c1cccc(NC(=O)CCOCCOCCOCCOCCNC(=O)[C@@H](CS(=O)(=O)O)NC(=O)CN3CCN(CC(=O)O)CCN(CC(=O)O)CCN(CC(=O)O)CC3)c1)-c1c(c(C(=O)N3CCOCC3(C)C)nn1-c1cc(Cl)cc(Cl)c1)CO2` [Compound 26, (S)-2,2′,2″-(10-(21-((3-(1-(3,5-dichlorophenyl)-3-(3,3-dimethylmorpholine-4-carbonyl)-7-methoxy-1,4-dihydrochromeno[4,3-c]pyrazol-8-yl)phenyl)amino)-2,5,21-trioxo-4-(sulfomethyl)-9,12,15,18-tetraoxa-3,6-diazahenicosyl)-1,4,7,10-tetraazacyclododecane-1,4,7-triyl)triacetic acid], below 10 nM.
Then `COc1cc2c(cc1-c1cccc(NC(=O)CCOCCOCCOCCOCCNC(=O)[C@H](CS(=O)(=O)O)NC(=O)CN3CCN(CC(=O)O)CCN(CC(=O)O)CCN(CC(=O)O)CC3)c1)-c1c(c(C(=O)N3CCOCC3(C)C)nn1-c1cc(Cl)cc(Cl)c1)CO2` [Compound 26A, indium (III) (R)-2,2′,2″-(10-(21-((3-(1-(3,5-dichlorophenyl)-3-(3,3-dimethylmorpholine-4-carbonyl)-7-methoxy-1,4-dihydrochromeno[4,3-c]pyrazol-8-yl)phenyl)amino)-2,5,21-trioxo-4-(sulfomethyl)-9,12,15, 18-tetraoxa-3,6-diazahenicosyl)-1,4,7,10-tetraazacyclododecane-1,4,7-triyl)triacetate], with below 10 nM.
Regarding `COc1cc2c(cc1-c1cccc(NC(=O)CCOCCOCCOCCOCCNC(=O)[C@@H](CCC(=O)O)NC(=O)CN3CCN(CC(=O)O)CCN(CC(=O)O)CCN(CC(=O)O)CC3)c1)-c1c(c(C(=O)N3CCOCC3(C)C)nn1-c1cc(Cl)cc(Cl)c1)CO2` [Compound 27, (R)-2,2′,2″-(10-(4-(2-carboxyethyl)-21-((3-(1-(3,5-dichlorophenyl)-3-(3,3-dimethylmorpholine-4-carbonyl)-7-methoxy-1,4-dihydrochromeno|4,3-clpyrazol-8-yl)phenyl)amino)-2,5,21-trioxo-9,12,15,18-tetraoxa-3,6-diazahenicosyl)-1,4,7,10-tetraazacyclododecane-1,4,7-triyl)triacetic acid], the EC50 was below 10 nM.
Then `COc1cc2c(cc1-c1cccc(NC(=O)CCOCCOCCOCCOCCNC(=O)CCC(C(=O)O)N3CCN(CC(=O)O)CCN(CC(=O)O)CCN(CC(=O)O)CC3)c1)-c1c(c(C(=O)N3CCOCC3(C)C)nn1-c1cc(Cl)cc(Cl)c1)CO2` (centres unmarked) [Compound 28], with below 10 nM.
For `COc1cc2c(cc1-c1cccc(NC(=O)CN3CCN(CC(=O)O)CCN(CC(=O)O)CCN(CC(=O)O)CC3)c1)-c1c(c(C(=O)N3CCOCC3(C)C)nn1-c1cc(Cl)cc(Cl)c1)CO2` [Compound 29, 2,2′,2″-(10-(2-((3-(1-(3,5-dichlorophenyl)-3-(3,3-dimethylmorpholine-4-carbonyl)-7-methoxy-1,4-dihydrochromeno|4,3-c|pyrazol-8-yl)phenyl)amino)-2-oxoethyl)-1,4,7,10-tetraazacyclododecane-1,4,7-triyl)triacetic acid], the EC50 is above 100 nM.
In the case of `COc1cc2c(cc1-c1cccc(NC(=O)C[C@@H](NC(=O)CN3CCN(CC(=O)O)CCN(CC(=O)O)CCN(CC(=O)O)CC3)C(=O)O)c1)-c1c(c(C(=O)N3CCOCC3(C)C)nn1-c1cc(Cl)cc(Cl)c1)CO2` [Compound 30], the EC50 fell in the range of 10 to 100 nM.
Consider `COc1cc2c(cc1-c1cccc(NC(=O)CC[C@@H](NC(=O)CN3CCN(CC(=O)O)CCN(CC(=O)O)CCN(CC(=O)O)CC3)C(=O)O)c1)-c1c(c(C(=O)N3CCOCC3(C)C)nn1-c1cc(Cl)cc(Cl)c1)CO2` [Compound 31], for which the EC50 was in the range of 10 to 100 nM.
In the case of `COc1cc2c(cc1-c1cccc(NC(=O)CNC(=O)C[C@@H](NC(=O)CN3CCN(CC(=O)O)CCN(CC(=O)O)CCN(CC(=O)O)CC3)C(=O)O)c1)-c1c(c(C(=O)N3CCOCC3(C)C)nn1-c1cc(Cl)cc(Cl)c1)CO2` [Compound 32, (R)-2,2′,2″-(10-(2-((1-carboxy-3-((2-((3-(1-(3,5-dichlorophenyl)-3-(3,3-dimethylmorpholine-4-carbonyl)-7-methoxy-1,4-dihydrochromeno|4,3-clpyrazol-8-yl)phenyl)amino)-2-oxoethyl)amino)-3-oxopropyl)amino)-2-oxoethyl)-1,4,7,10-tetraazacyclododecane-1,4,7-triyl)triacetic acid], the EC50 lay within 10 to 100 nM.
Take `COc1cc2c(cc1-c1cccc(NC(=O)[C@H](CS(=O)(=O)O)NC(=O)CN3CCN(CC(=O)O)CCN(CC(=O)O)CCN(CC(=O)O)CC3)c1)-c1c(c(C(=O)N3CCOCC3(C)C)nn1-c1cc(Cl)cc(Cl)c1)CO2` [Compound 33, (R)-2,2′,2″-(10-(2-((1-((3-(1-(3,5-dichlorophenyl)-3-(3,3-dimethylmorpholine-4-carbonyl)-7-methoxy-1,4-dihydrochromeno|4,3-c|pyrazol-8-yl)phenyl)amino)-1-oxo-3-sulfopropan-2-yl)amino)-2-oxoethyl)-1,4,7,10-tetraazacyclododecane-1,4,7-triyl)triacetic acid]: the EC50 is above 100 nM.
